Data published in patent US20260166141A1, “PHARMACEUTICAL COMPOSITION OF RIP2 INHIBITOR IN COMBINATION WITH IMMUNE CHECKPOINT INHIBITOR AND USE THEREOF” (NINGBO COMBIREG PHARMACEUTICAL TECHNOLOGY CO., LTD., priority 2022, published 2026).

Tests used:
Type in all cases: in vivo
colorectal cancer (MC38) [1] = experiment: colorectal cancer (MC38) tumor-bearing model in C57BL/6 mice, GSK583 combined with pembrolizumab; details: Day 20; pembrolizumab 150 μg/mouse i.p.; GSK583 1 mg/kg i.v. once every 4 days; compared to IgG control
Description: (§1) Test substances pembrolizumab (Merck & Co., Inc.) and IgG control antibody (in VivoMAb human IgG1 isotype control; BioXCell, BE0297) were prepared in saline. GSK583 was formulated as a 20× stock solution in DMSO and diluted to the dosing concentration with saline containing 5% polyoxyl 35 castor oil (Cremophor EL) before use.
(§2) Experimental animals and tumor lines: SPF-grade male wild-type C57BL/6 mice (6 to 8 weeks old, 20 to 25 g) were purchased from the Laboratory Animal Resources Center, Tsinghua University. The cells used in the experiment were murine colorectal cancer cells (MC38), which were purchased from the Cell Bank of Peking Union Medical College.
According to the method shown in (A and B of FIG. 7), the mice were subcutaneously inoculated with MC38 cells at a concentration of 5×10^6 cells/mL and 0.1 mL/mouse. When the tumor grew to a volume within the range of 100 mm^3, the mice were randomly divided into 3 groups based on tumor volume, with 6 to 7 mice per group, and dosing was initiated. […] The day of grouping and dosing was recorded as Day 0. During the dosing process, the animals were weighed every 2 to 3 days, and the long and short diameters of the tumor were measured with a vernier caliper. The tumor size was calculated by the formula: (½)×long diameter×(short diameter)^2. […]

colorectal cancer (MC38) [2] = experiment: colorectal cancer (MC38) tumor-bearing model in C57BL/6 mice, GSK583 combined with atezolizumab; details: for tumor growth (tumor volume progression): atezolizumab 150 μg/mouse i.p. Days 0, 4, 11, GSK583 1 mg/kg i.v. once every 4 days, 4 doses, compared to IgG control
Description: as §1, with “atezolizumab (Roche)” for “pembrolizumab (Merck & Co., Inc.)”
as §2
According to the method shown in (A and B of FIG. 3), the mice were subcutaneously inoculated with MC38 cells at a concentration of 5×10^6 cells/mL and 0.1 mL/mouse. When the tumor grew to a volume within the range of 100 mm^3, the mice were randomly divided into 4 groups based on tumor volume, with 6 to 8 mice per group, and dosing was initiated. The dosing regimen was as follows: (i) blank control (IgG control, 150 μg/mouse) group; (ii) GSK583 (1 mg/kg) group; (iii) atezolizumab (150 μg/mouse) group; (iv) atezolizumab (150 μg/mouse)+GSK583 (1 mg/kg). GSK583 was administered via intravenous injection once every 4 days for a total of 4 doses; IgG control and atezolizumab were administered via intraperitoneal injection on Days 0, 4, and 11 for a total of 3 doses. The day of grouping and dosing was recorded as Day 0. During the dosing process, the animals were weighed every 2 to 3 days, and the long and short diameters of the tumor were measured with a vernier caliper. The tumor size was calculated by the formula: (½)×long diameter×(short diameter)^2. The experiment was terminated on Day 15. After the mice were euthanized and dissected, the tumor was removed and weighed, and the tumor inhibition rate was calculated.

colorectal cancer (MC38) [3] = experiment: colorectal cancer (MC38) tumor-bearing model in WT and RIP2−/− C57BL/6 mice, atezolizumab; details: for tumor growth (tumor volume progression): 150 μg/mouse i.p. Days 0, 4, 11, 18; for tumor weight: compared to corresponding control group
Description: Test substances atezolizumab (Roche) and IgG control antibody (in VivoMAb human IgG1 isotype control; BioXCell, BE0297) were prepared in saline. Experimental animals and tumor lines: SPF-grade male wild-type (WT) C57BL/6 mice (20 to 25 g) and RIP2 knockout (RIP2^−/−) mice (6 to 8 weeks old, 20 to 25 g) were purchased from Shanghai Model Organisms Center, Inc. The mice were generated using CRISPR-Cas9 technology and bred at the Laboratory Animal Resources Center, Tsinghua University. The cells used in the experiment were murine colorectal cancer cells (MC38), which were purchased from the Cell Bank of Peking Union Medical College.
According to the method shown in (A and B of FIG. 1), the mice were subcutaneously inoculated with MC38 cells at a concentration of 5×10^6 cells/mL and 0.1 mL/mouse. When the tumor grew to a volume within the range of 100 mm^3, WT mice and RIP2^−/− mice were randomly divided into 2 groups based on tumor volume, with 6 to 8 mice per group, and dosing was initiated. The dosing regimen was as follows: (i) WT-blank control (WT-IgG control, 150 μg/mouse) group; (ii) WT-atezolizumab (150 μg/mouse) group; (iii) RIP2^−/−-blank control (RIP2^−/−-IgG control, 150 μg/mouse) group; (iv) RIP2^−/−-atezolizumab (150 μg/mouse) group. IgG control and atezolizumab were administered via intraperitoneal injection on Days 0, 4, 11, and 18 for a total of 4 doses. The day of grouping and dosing was recorded as Day 0. During the dosing process, the animals were weighed every 2 to 3 days, and the long and short diameters of the tumor were measured with a vernier caliper. The tumor size was calculated by the formula: (1/2)×long diameter×(short diameter)^2. The experiment was terminated on Day 20. After the mice were euthanized and dissected, the tumor was removed and weighed, and the tumor inhibition rate was calculated by the formula: [([…])/average tumor weight of the control group]×100%.

Molecule	tumor growth (tumor volume progression) (colorectal cancer (MC38) [1])	tumor growth (tumor volume progression) (colorectal cancer (MC38) [2])	inhibitory effect on tumor growth, RIP2−/− mice compared to WT mice (colorectal cancer (MC38) [3]; 150 μg/mouse i.p., tumor volume)	tumor growth (tumor volume progression) (colorectal cancer (MC38) [3]; RIP2−/− mice, compared to RIP2−/−-IgG control)	tumor weight (colorectal cancer (MC38) [3]; RIP2−/− mice, end of dosing (Day 20))	tumor growth (tumor volume progression) (colorectal cancer (MC38) [3]; WT mice, compared to WT-IgG control)	tumor weight (colorectal cancer (MC38) [3]; WT mice, end of dosing (Day 20))	anti-tumor effect (tumor weight, tumor weight inhibition rate), RIP2−/− mice compared to WT mice (colorectal cancer (MC38) [3]; end of dosing (Day 20))	tumor weight (colorectal cancer (MC38) [2]; end of dosing (Day 15), compared to control group)
pembrolizumab: programmed death 1 (PD-1) inhibitor, pembrolizumab (Merck & Co., Inc.)	significantly inhibited tumor growth	–	–	–	–	–	–	–	–
CC(C)(C)S(=O)(=O)c1ccc2nccc(Nc3n[nH]c4ccc(F)cc34)c2c1 [GSK583]	–	no significant inhibitory effect on tumor growth	–	–	–	–	–	–	–
atezolizumab: programmed death-ligand 1 (PD-L1) inhibitor, atezolizumab (Roche)	–	significantly inhibited tumor growth	significantly improved	significantly inhibited tumor growth	significantly reduced tumor weight	significantly inhibited tumor growth	significantly reduced tumor weight	significantly stronger than that in WT mice	significantly lower than that in the control group
